Source: article PMC4192597, “Antimicrobials, Stress and Mutagenesis” (PLoS Pathogens, 2014)
Where two headings read alike, the source gives them in different places.

Experiments:
E. coli MG1655 [1] = test: microbe, parasite or virus in culture; type: cell-based, Escherichia coli; conditions: 4 hours, 50% reduction of CFUs vs control, Mueller Hinton Broth, 37°C, five replicates, repeated twice
Description: The MIC50s for all antimicrobials were determined by inoculating strains grown to mid-log phase into the wells of a 96-microwell plate. Approximately 10^2 cells from overnight cultures were inoculated into tubes containing 10 ml of Mueller Hinton Broth medium, and the tubes were incubated at 37°C with strong shaking until the mid-log phase of growth (approximately 10^8 cells/ml). […] The plates were incubated at 37°C for 4 h with continuous shaking in a plate reader (Synergy 2, BioTeK). After four hours, aliquots from wells with OD^600 readings ranging from 10 to 90% values in comparison with the control, were serially diluted in sterile 0.9% NaCl, and incubated during 1 hour to allow the resolution of filaments as consequence of SOS activation, if any. Bacterial suspensions were plated in Mueller Hinton Broth agar plates to estimate the viability as colony forming units (CFUs). Five replicates per concentration were prepared and the experiments were repeated twice.

[2] = system: E. coli stress response genes (strain MG1655); test: Relative gene expression of stress response genes by quantitative real-time PCR; type: cell-based, Escherichia coli; conditions: qPCR; for Result, cpxA / Result, cpxR / Result, dinB / Result, lexA / Result, marR / Result, oxyR / Result, phoP / Result, phoQ / Result, recA / Result, rpoE / Result, rpoS / Result, umuC: REST 2009 randomisation test; as to Result, cpxR: key: NDE: non-differentially expressed, p-value ≥ 0,05; UP: upregulated, p-value ≤ 0,05; DOWN: downregulated, p-value ≤ 0,05; as to Result, oxyR: key: NDE: non-differentially expressed, p-value ≥ 0,05; UP: upregulated, p-value ≤ 0,05; DOWN: downregulated, p-value ≤ 0,05; as to Result, rpoE: key: NDE: non-differentially expressed, p-value ≥ 0,05; UP: upregulated, p-value ≤ 0,05; DOWN: downregulated, p-value ≤ 0,05
Description: Preparation of each of the six treatments and the control samples was carried out by two operators on three consecutive days, thereby comprising three biological replicates for each of the six experimental and one control groups. To obtain the starting material for the experiment, a fresh bacterial culture was grown from a glycerol stock on Mueller-Hinton (MH) agar plates at 37°C for 18–24 hours. One well-isolated colony per biological replicate was used to inoculate 2 ml of liquid MH (Sigma) in a 10 ml sterile polypropylene tube and incubated at 37°C for 16 hours with mild shaking. The overnight (ON) culture was then diluted 1∶100 in MH, subdivided into seven 10 ml aliquots and incubated in 50 ml-Falcon tubes at 37°C for 2.5 hours at 220 rpm. When the OD600 of bacterial cultures reached 0.5–0.7, respective antibiotics and AMPs were added to a concentration to match with those used in the mutagenesis experiments. These bacterial cultures were incubated for 20 minutes at 37°C with gentle shaking. Two ml of bacterial cultures from each treatment and the control were collected, immediately centrifuged at 10000 g for 2 minutes and the supernatant was removed to stop the treatment. The bacterial pellet was then resuspended in 1 ml MH, followed by an addition of 1 ml of RNAprotect Bacteria Reagent (Qiagen), 5 minutes incubation and centrifugation at 10000 g for 2 minutes at room temperature. The supernatant was discarded and the bacterial pellet was immediately frozen and stored at −80°C until RNA extraction.
Total RNA was isolated using RNeasy kit (Qiagen) according to the manufacturer's instructions and eluted in 50 µl of RNase-free water. The nucleic acid yield and purity were determined by measuring the optical density at A260/280 using a Nanodrop spectrophotometer (Thermo Scientific). RNA samples were treated with TURBO DNase (Life Technologies). Briefly, ten µg of RNA were used in a total volume of 500 µl containing 20 units of TURBO DNase, incubated for 30 minutes at 37°C, immediately followed by RNeasy (Qiagen) cleanup and elution in 30 µl of RNase-free water. Following DNase treatment, RNA integrity was assessed using Agilent RNA 6000 Nano kit and 2100 Bioanalyzer instrument (both Agilent Technologies).
High-Capacity cDNA Reverse Transcription Kit with RNase Inhibitor (Applied Biosystems) was used for cDNA synthesis. Initially, to ensure linear conversion of the transcripts, the dynamic range of reverse transcription reaction was tested by performing a standard curve with cDNA, synthesised using various input amounts of pooled RNA. Total RNA (250 ng per reaction) and random primers were used for cDNA synthesis. To obtain sufficient amount of cDNA, several batches of 20 µl RT reactions were pooled, diluted 50-fold with RNase-free water and stored in single-use aliquots at −80°C until further use. All 21 samples were tested for presence of contaminating genomic DNA by running the mdoG assay with cDNA and the respective no reverse transcription (−RT) controls.
Escherichia coli strain K-12 substrain MG1655 complete genome (accession U00096) sequence was downloaded from NCBI database (www.ncbi.nlm.nih.gov) and used for primer design. Target sequence accession number, location of the amplicon, amplicon length and primer sequences for each assay can be found in table S2. Primers were designed using Primer Express software (Applied Biosystems) and optimized for annealing temperature of 60°C. Each primer pair and amplicon were checked for secondary structure formation using Oligo Tool (Integrated DNA technologies, http://eu.idtdna.com/analyzer/Applications/OligoAnalyzer/).

E. coli MG1655 [3] = test: Minimal inhibitory concentration (MIC), micro-dilution; type: cell-based, Escherichia coli; conditions: inoculum 2×10^8 cfu/ml, 24 h, liquid MH medium, 37°C
Description: E. coli K-12 MG1655 was used for all experiments, grown in liquid Mueller-Hilton (MH) agar or agarose, unless otherwise indicated. All experiments were carried out at 37°C.
MICs were determined according to CLSI recommendations by a micro-dilution method with the exception that the inoculum size that was adjusted to 2×10^8 cfu/ml from a regrowth of overnight cultures to be consistent with the mutagenesis experiments. […] Polypropylene non-binding plates (Th. Geyer, Germany) were used for all experiments.

[4] = system: E. coli stress response genes; conditions: cited from earlier work
[5] = 20 minutes exposure vs non-treated bacteria
[6] = 20 minutes exposure vs non-treated bacteria, normalized to arcA, mdoG, tus, Pexiganan 16, Melittin 16, Kanamycin 16, Ciprofloxacin 0.5, Lysozyme 128, Ampicillin 32 μg/ml, three biological replicates
[7] = norfloxacin 250 ng/ml, 30 min, ref Kohanski,2007
[8] = norfloxacin 250 ng/ml, 60 min, ref Kohanski,2007
[9] = norfloxacin 15 μg/ml, 20 min, gyrA+/parCr, ref Peter,2004
[10] = norfloxacin 15 μg/ml, 30min, gyrAr/parCCr cells, ref Peter,2004

Row | Compound | Result, cpxA [2, 5] | Result, cpxR [2, 5] | Result, dinB [2, 5] | Result, lexA [2, 5] | Result, marR [2, 5] | Result, oxyR [2, 5] | Result, phoP [2, 5] | Result, phoQ [2, 5] | Result, recA [2, 5] | Result, rpoE [2, 5] | Result, rpoS [2, 5] | Result, umuC [2, 5] | Expression, cpxA (Envelope stress) [2, 6] | Expression, cpxR (Envelope stress) [2, 6] | Expression, dinB (SOS response) [2, 6] | Expression, lexA (SOS response) [2, 6] | Expression, oxyR (Oxidative stress) [2, 6] | Expression, phoP (Envelope stress) [2, 6] | Expression, phoQ (Envelope stress) [2, 6] | Expression, recA (SOS response) [2, 6] | also measured
1 | O=C(O)c1cn(C2CC2)c2cc(N3CCNCC3)c(F)cc2c1=O [Ciprofloxacin] | DOWN (2.25-fold) | NDE | UP (14.2-fold) | UP (10.5-fold) | DOWN (5.35-fold) | NDE | NDE | NDE | UP (66.6-fold) | NDE | DOWN (2.08-fold) | UP (11.26-fold) | 0.443 | 0.425 | 14.157 | 10.527 | 3.552 | 0.655 | 0.48 | 66.583 | MIC50 (E. coli MG1655 [1]; Escherichia coli, read-out: MIC50): 0.05 µg/mL; fold downregulation, cpxA ([2]; 20 minutes exposure): 2.25 fold; fold downregulation, marR ([2]; 20 minutes exposure): 5.35 fold; fold downregulation, rpoS ([2]; 20 minutes exposure): 2.08 fold; fold upregulation, dinB ([2]; 20 minutes exposure): 14.2 fold; fold upregulation, lexA ([2]; 20 minutes exposure): 10.5 fold; fold upregulation, recA ([2]; 20 minutes exposure): 66.6 fold; fold upregulation, umuC ([2]; 20 minutes exposure): 11.26 fold; Expression, rpoE (Envelope stress) [2, 6]: 0.391; Expression, rpoS (Sigma S response) [2, 6]: 0.479; Expression, umuC (SOS response) [2, 6]: 11.255
2 | CC[C@H](C)[C@H](NC(=O)[C@H](CCCCN)NC(=O)[C@H](CCC(=O)O)NC(=O)[C@H](CCCCN)NC(=O)[C@H](CO)NC(=O)[C@H](CCCCN)NC(=O)[C@H](CCCNC(=N)N)NC(=O)[C@H](Cc1ccccc1)NC(=O)[C@H](Cc1ccccc1)NC(=O)[C@H](CC(=O)O)NC(=O)CNC(=O)[C@H](CC(C)C)NC(=O)[C@@H](N)CC(C)C)C(=O)NCC(=O)N[C@@H](CCCCN)C(=O)N[C@@H](CCC(=O)O)C(=O)N[C@@H](Cc1ccccc1)C(=O)N[C@@H](CCCCN)C(=O)N[C@@H](CCCNC(=N)N)C(=O)N[C@H](C(=O)N[C@H](C(=O)N[C@@H](CCC(N)=O)C(=O)N[C@@H](CCCNC(=N)N)C(=O)N[C@H](C(=O)N[C@@H](CCCCN)C(=O)N[C@@H](CC(=O)O)C(=O)N[C@@H](Cc1ccccc1)C(=O)N[C@@H](CC(C)C)C(=O)N[C@@H](CCCNC(=N)N)C(=O)N[C@@H](CC(N)=O)C(=O)N[C@@H](CC(C)C)C(=O)N[C@H](C(=O)N1CCC[C@H]1C(=O)N[C@@H](CCCNC(=N)N)C(=O)N[C@H](C(=O)N[C@@H](CCC(=O)O)C(=O)N[C@@H](CO)C(=O)O)[C@@H](C)O)C(C)C)[C@@H](C)CC)C(C)C)[C@@H](C)CC [LL-37] |  |  |  |  |  |  |  |  |  |  |  |  |  |  |  |  |  |  |  |  | MIC50 (E. coli MG1655 [1]): 8 µg/mL
3 | Human lysozyme: human lysozyme obtained from Sigma | NDE | NDE | NDE | NDE | NDE | NDE | NDE | NDE | NDE | NDE | NDE | NDE | 0.902 | 0.908 | 1.116 | 1.18 | 1.334 | 0.794 | 0.667 | 1.27 | MIC (E. coli MG1655 [3]): 20 µg/mL; MIC50 (E. coli MG1655 [1]): 12.8 µg/mL; Expression, marR (Independent multiple antibiotic resistance) [2, 6]: 0.633; Expression, rpoE (Envelope stress) [2, 6]: 0.784; Expression, rpoS (Sigma S response) [2, 6]: 0.899; Expression, umuC (SOS response) [2, 6]: 1.056
4 | CCn1cc(C(=O)O)c(=O)c2cc(F)c(N3CCNCC3)cc21 [norfloxacin] |  |  |  |  |  |  |  |  |  |  |  |  |  |  |  |  |  |  |  |  | expression, recA (microarray database) ([4]; norfloxacin 0.12 μg/ml, 30 min, ref Shaw,2003): 11.1; expression, rpoE (microarray database) [4, 7]: -2.308; expression, rpoS (microarray database) [4, 7]: -2.24; expression, cpxR (microarray database) [4, 8]: -2.588; expression, phoP (microarray database) [4, 8]: -2.179; expression, phoQ (microarray database) ([4]; norfloxacin 15 μg/ml, 4 min, gyrA+/parC+, ref Peter,2004): -2.778; expression, cpxA (microarray database) ([4]; norfloxacin 15 μg/ml, 10 min, gyrA+/parCr, ref Peter,2004): -2.439; expression, dinB (microarray database) [4, 9]: 2.57; expression, oxyR (microarray database) [4, 9]: 4.05; expression, lexA (microarray database) [4, 10]: 5; expression, umuC (microarray database) [4, 10]: 8.421; expression, marR (microarray database) ([4]; norfloxacin (30min) / spectinmycin, 250 ng/ml, 30 min, spectinomycin (400 μg/ml), ref Kohanski,2007): -3.206
